From EP4678644A1, “SUBSTITUTED DIHYDROTHIENOPYRIMIDINE COMPOUND, PREPARATION METHOD THEREFOR, AND USE THEREOF” (Shanghai Yidi Biotechnology Co., Ltd., priority 2023, dated 2024) come the findings set out here.

Broadly, the IC50 is the concentration needed to halve the response being measured. Broadly, the inhibition is the share of the control response that was lost under treatment. High values mean strong suppression, low ones little suppression.

For one experiment, the target named is PDE4D2 (Homo sapiens, UniProt Q08499). Briefly: PDE4D2 enzyme experiment (AMP-glo, cAMP substrate). The settings on record: read-out: PDE4D2 IC50 Binding. The experiment is classed as biochemical. An excerpt: Inhibition rate % ^= (1 - (RLUpositive control - RLUcompound)/(RLUpositive control - RLUnegative control)) * 100.
In experiment [1] the target is T1, PDE4B2 (Homo sapiens, UniProt Q07343).
T1 construct: expressed in transfected cells; host or cells: Flp-In-293 (Flpin-293-PDE4B2 [sic])
Briefly: PDE4B2 cell experiment (cAMP, Eu-cAMP tracer / Ulight-anti-cAMP). In kind it is cell-based. The note with it: Flpin-293-PDE4B2 cells; for IC50: Foskolin.
Protocol: All compounds were dissolved in DMSO into 10 mM or 20 mM stock solutions. The compound to be tested was diluted with DMSO with a 3-fold gradient. […] 40 nL/well of the compound or a DMSO control was transferred to a 384-well plate by using Echo 550 instrument. […] The plate was incubated at 37°C for 30 minutes. Eu-cAMP tracer and Ulight-anti-cAMP were frozen and thawed and diluted in a lysis buffer. 10 of µl Eu-cAMP tracer was added to an experimental well, and 10 µl of Ulight-anti-cAMP was added to the experimental well. The reaction plate was centrifuged at 200 g at room temperature for 30 s and then left to stand at 25°C for 1 h, and data was then collected by Envision. Inhibition % = 100 - (Signal compound - SignalAve positive control)/(SignalAve negative control - SignalAve positive control) × 100. Graphpad 8.0 software was then used to obtain an IC50 value by calculation using Y = Bottom + (Top - Bottom)/(1 + 10^((LogIC50 - X) * HillSlope)).

The target of experiment [2] is T1, PDE4B2. Briefly: PDE4B2 enzyme experiment (AMP-glo, cAMP substrate). In kind it is biochemical.
Protocol: All compounds were dissolved in DMSO into 10 mM or 20 mM stock solutions. The compound to be tested was diluted with DMSO in a 3-fold gradient. 20 nL/well of the compound or a DMSO control was transferred to a 384-well plate by using Echo 550 instrument. The plate was sealed with a membrane and centrifuged for 1 minute. A 2x enzyme solution was prepared with an assay buffer, and 2 uL/well of the 2x enzyme solution was added, followed by equilibration at room temperature for 10 minutes. A 2x Cyclic-3',5'-AMP substrate solution was prepared with an assay buffer, and 2 uL/well of the 2x substrate solution was added, followed by incubation at room temperature for 60 minutes. 4 uL of AMP-glo reagent was added, followed by incubation at room temperature for 60 minutes. 8 ul of an AMP detection solution was added, followed by incubation at room temperature for 60 minutes. An RLU value was read on Envision 2105 plate reader. The RLU value represents the concentration of the product AMP. Inhibition rate % ^= (1 - (RLUpositive control - RLUcompound)/(RLUpositive control - RLUnegative control)) * 100. The IC50 value was then caulculated by Graphpad 8.0 software using Y = Bottom + (Top - Bottom)/(1 + 10^((LogIC50 - X) * HillSlope)).

T1 sequence (Q07343 1-564 isoform Q07343-2): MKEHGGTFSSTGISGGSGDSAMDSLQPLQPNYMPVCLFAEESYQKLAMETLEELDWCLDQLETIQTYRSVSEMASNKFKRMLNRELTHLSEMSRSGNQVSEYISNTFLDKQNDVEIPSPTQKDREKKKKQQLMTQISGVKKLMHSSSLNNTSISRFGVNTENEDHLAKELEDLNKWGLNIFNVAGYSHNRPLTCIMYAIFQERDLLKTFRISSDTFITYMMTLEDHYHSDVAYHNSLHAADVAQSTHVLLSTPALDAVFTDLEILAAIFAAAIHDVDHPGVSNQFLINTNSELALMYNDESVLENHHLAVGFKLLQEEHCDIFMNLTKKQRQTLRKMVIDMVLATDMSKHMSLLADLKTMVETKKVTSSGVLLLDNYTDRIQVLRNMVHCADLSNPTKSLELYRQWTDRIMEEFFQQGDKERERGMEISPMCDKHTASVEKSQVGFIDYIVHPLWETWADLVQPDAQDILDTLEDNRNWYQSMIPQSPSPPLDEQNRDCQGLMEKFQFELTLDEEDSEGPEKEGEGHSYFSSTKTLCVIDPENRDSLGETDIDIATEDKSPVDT
Sequence of PDE4D2 (Q08499 303-809 limits assumed): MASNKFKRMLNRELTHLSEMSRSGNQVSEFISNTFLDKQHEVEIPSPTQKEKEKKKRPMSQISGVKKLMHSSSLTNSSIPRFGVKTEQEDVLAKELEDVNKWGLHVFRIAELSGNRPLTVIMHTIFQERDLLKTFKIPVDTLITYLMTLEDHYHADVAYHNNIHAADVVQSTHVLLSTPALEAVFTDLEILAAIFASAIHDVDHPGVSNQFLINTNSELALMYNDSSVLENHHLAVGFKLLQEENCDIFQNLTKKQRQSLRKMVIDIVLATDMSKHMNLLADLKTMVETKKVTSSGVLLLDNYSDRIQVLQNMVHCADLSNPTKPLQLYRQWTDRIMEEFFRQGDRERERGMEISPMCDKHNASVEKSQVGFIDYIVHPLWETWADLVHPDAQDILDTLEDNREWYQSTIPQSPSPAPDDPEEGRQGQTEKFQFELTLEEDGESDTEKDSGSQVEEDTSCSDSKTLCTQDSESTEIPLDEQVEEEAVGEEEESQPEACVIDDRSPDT

As to `Cn1cnc(-c2ccc3c(c2)CCN(c2nc4c(c(NC5(CO)CCC5)n2)[S+]([O-])CC4)C3)n1` (centres unmarked) [Compound 94], the IC50 on PDE4D2 worked out at 0.125 nM; at PDE4B2 [2], 0.0712 nM. For the same molecule, the “Cell Inhibition% @1 nM” value at PDE4B2 [1] (1 nM) stood at 34.83%. Further, the “Cell Inhibition% @10 nM” value on PDE4B2 [1] (10 nM) came out at 94.09%. At PDE4B2 [1] (100 nM), the “Cell Inhibition% @100 nM” value came to 100.44%.
The like results for `[O-][S+]1CCc2nc(N3CCc4cc(Cl)ncc4C3)nc(NC3(CO)CCC3)c21` (centres unmarked) [Compound 78] were, in that order, 4.02 nM, 1.82 nM, 2.20%, 32.09% and 86.33%.
Regarding `COc1ccc2sc3c(c2c1)CCN(c1nc2c(c(NC4(CO)CCC4)n1)[S+]([O-])CC2)C3` (centres unmarked) [Compound 82], the concentration for half-maximal inhibition (IC50) on PDE4D2 is 0.764 nM; against PDE4B2 [2], 0.366 nM. Further, the “Cell Inhibition% @1 nM” value on PDE4B2 [1] (1 nM) worked out at 19.08%. Moreover, the “Cell Inhibition% @10 nM” value on PDE4B2 [1] (10 nM) was found to be 77.47%. For the same molecule, the “Cell Inhibition% @100 nM” value on PDE4B2 [1] (100 nM) was 99.87%.
On to `COc1nc2cc(Cl)ccc2c2c1CN(c1nc3c(c(NC4(CO)CCC4)n1)[S+]([O-])CC3)CC2` (centres unmarked) [Compound 101], for which the IC50 at PDE4D2 stood at 1.96 nM; on PDE4B2 [1], 13.2 nM; against PDE4B2 [2], 0.655 nM.
Take `[O-][S+]1CCc2nc(N3CC[C@@H]4c5ccccc5OC[C@H]4C3)nc(NC3(CO)CCC3)c21` (some centres unmarked) [Compound 83]: the results for the half-maximal inhibitory concentration (IC50) on PDE4D2 and against PDE4B2 [2] were 1.07 nM and 0.621 nM, respectively. At PDE4B2 [1] (1 nM), the “Cell Inhibition% @1 nM” value was 5.79%. Moreover, the “Cell Inhibition% @10 nM” value at PDE4B2 [1] (10 nM) was 47.82%. For the same molecule, on PDE4B2 [1] (100 nM), the “Cell Inhibition% @100 nM” value came out at 97.34%.
For `[O-][S+]1CCc2nc(N3CC[C@@H]4c5cccc(Cl)c5OC[C@H]4C3)nc(NC3(CO)CCC3)c21` (some centres unmarked) [Compound 107], in that order: 2.95 nM, 1.14 nM, 2.82%, 52.48% and 98.12%.
For `[O-][S+]1CCc2nc(N3CCc4cc(-n5ccnc5)ccc4C3)nc(NC3(CO)CCC3)c21` (centres unmarked) [Compound 90], in that order: 0.385 nM, 0.19 nM, 14.99%, 65.79% and 97.23%.
Regarding `[O-][S+]1CCc2nc(N3CCc4cc(Cl)cc(Cl)c4C3)nc(NC3(CO)CCC3)c21` (centres unmarked) [Compound 25], the results for the IC50 on PDE4D2, on PDE4B2 [1] and on PDE4B2 [2] were 2.19 nM, 23.7 nM and 0.92 nM, respectively.
Take `[O-][S+]1CCc2nc(N3CCc4cc(C(F)(F)F)ccc4C3)nc(NC3(CO)CCC3)c21` (centres unmarked) [Compound 52]: the IC50 was 0.826 nM on PDE4D2 and 0.488 nM against PDE4B2 [2]. The “Cell Inhibition% @10 nM” value on PDE4B2 [1] (10 nM) came to 81.81%. Also, the “Cell Inhibition% @100 nM” value at PDE4B2 [1] (100 nM) is 99.55%.
In the case of `CS(=O)(=O)c1ccc2c(c1)CCN(c1nc3c(c(NC4(CO)CCC4)n1)[S+]([O-])CC3)C2` (centres unmarked) [Compound 93], the results for the IC50 on PDE4D2 and at PDE4B2 [2] were 0.603 nM and 0.344 nM, respectively. At PDE4B2 [1] (1 nM), the “Cell Inhibition% @1 nM” value came to 14.02%. The “Cell Inhibition% @10 nM” value at PDE4B2 [1] (10 nM) was determined as 61.02%. Besides, the “Cell Inhibition% @100 nM” value at PDE4B2 [1] (100 nM) amounted to 94.24%.
As for `C[C@@H]1c2ccc(Cl)cc2CCN1c1nc2c(c(NC3(CO)CCC3)n1)[S@+]([O-])CC2` [Compound 29], the IC50 at PDE4D2 is 1.79 nM; against PDE4B2 [2], 0.54 nM.
Regarding `O=c1[nH]c2cc3c(cc2o1)CN(c1nc2c(c(NC4(CO)CCC4)n1)[S@+]([O-])CC2)CC3` [Compound 51, (R)-6-(4-((1-(hydroxymethyl)cyclobutyl)amino)-5-oxido-6,7-dihydrothieno[3,2-d]pyrimidin-2-yl)-5,6,7,8-tetrahydrooxazolo[4,5-g]isoquinolin-2(1H)-one], the half-inhibitory concentration (IC50) on PDE4D2 was determined as 1.18 nM; against PDE4B2 [2], 0.596 nM. For the same molecule, testing at 0.001 µM on PDE4B2 [1] (1 nM) gave an inhibition of 17.1%. For the same molecule, on PDE4B2 [1] (10 nM), at 0.01 µM the inhibition was 38.4%. Besides, testing at 0.1 µM at PDE4B2 [1] (100 nM) gave an inhibition of 70.1%.
Turning to `[O-][S+]1CCc2nc(N3CCc4cc(N5CC(F)C5)ccc4C3)nc(NC3(CO)CCC3)c21` (centres unmarked) [Compound 89], the IC50 at PDE4D2 stood at 1.63 nM; on PDE4B2 [2] it was 0.705 nM. Moreover, at PDE4B2 [1] (1 nM), the “Cell Inhibition% @1 nM” value was 3.47%. Moreover, the “Cell Inhibition% @10 nM” value at PDE4B2 [1] (10 nM) turned out to be 37.42%. Besides, the “Cell Inhibition% @100 nM” value on PDE4B2 [1] (100 nM) amounted to 95.32%.
Turning to `[O-][S+]1CCc2nc(N3CCc4cc5c(cc4C3)OCO5)nc(NC3(CO)CCC3)c21` (centres unmarked) [Compound 35], the IC50 stood at 3.89 nM at PDE4D2, 46.1 nM on PDE4B2 [1] and 1.32 nM against PDE4B2 [2].
For the molecule `[O-][S+]1CCc2nc(N3Cc4ccc(Br)cc4C3)nc(NC3(CO)CCC3)c21` (centres unmarked) [Compound 59], the IC50 at PDE4D2 worked out at 4.75 nM; against PDE4B2 [2], 2.12 nM. The “Cell Inhibition% @10 nM” value on PDE4B2 [1] (10 nM) is given as 42.65%. Further, the “Cell Inhibition% @100 nM” value on PDE4B2 [1] (100 nM) is given as 85.82%.
Take `[O-][S@+]1CCc2nc(N3CCc4cc(Br)sc4C3)nc(NC3(CO)CCC3)c21` [Compound 53, (R)-2-(2-bromo-4,7-dihydrothieno[2,3-c]pyridin-6(5H)-yl)-4-((1-(hydroxymethyl)cyclobutyl)amino)-6,7-dihydrothieno[3,2-d]pyrimidine 5-oxide]: at PDE4D2, the 50% inhibitory concentration (IC50) came out at 1.22 nM.
Still for that read-out and setting: under `[O-][S@+]1CCc2nc(N3CCc4c(sc5ccc(F)cc45)C3)nc(NC3(CO)CCC3)c21` [Compound 69, (R)-2-(6-fluoro-3,4-dihydrobenzo[4,5]thieno[2,3-c]pyridin-2(1H)-yl)-4-((1-(hydroxymethyl)cyclobutyl)amino)-6,7-dihydrothieno[3,2-d]pyrimidine 5-oxide] stands 0.276 nM.
As for `[O-][S@+]1CCc2nc(N3CCc4c(nn5cc(Cl)cnc45)C3)nc(NC3(CO)CCC3)c21` [Compound 1, (R)-2-(3-chloro-9,10-dihydropyrido[3',4':3,4]pyrazolo[1,5-a]pyrimidin-8(7H)-yl)-4-((1-(hydroxymethyl)cyclobutyl)amino)-6,7-dihydrothieno[3,2-d]pyrimidine 5-oxide], at PDE4D2, the IC50 is 7.72 nM.
With `Cn1ncc2c3c(cnc21)CN(c1nc2c(c(NC4(CO)CCC4)n1)[S@+]([O-])CC2)CC3` [Compound 104, (R)-4-((1-(hydroxymethyl)cyclobutyl)amino)-2-(3-methyl-3,6,8,9-tetrahydro-7H-pyrazolo[3,4-c][2,7]naphthyridin-7-yl)-6,7-dihydrothieno[3,2-d]pyrimidine 5-oxide], on PDE4D2, the half-inhibitory concentration (IC50) worked out at 2.94 nM.
On the same count and under the same terms, then `CNc1nc2cc(Cl)ccc2c2c1CN(c1nc3c(c(NC4(CO)CCC4)n1)[S@+]([O-])CC3)CC2` [Compound 74, (R)-2-(8-chloro-5-(methylamino)-1,4-dihydrobenzo[c][2,7]naphthyridin-3(2H)-yl)-4-((1-(hydroxymethyl)cyclobutyl)amino)-6,7-dihydrothieno[3,2-d]pyrimidine 5-oxide], with 1.09 nM; and `[O-][S@+]1CCc2nc(N3CCc4cc(C5CC5)ccc4C3)nc(NC3(CO)CCC3)c21` [Compound 66, (R)-2-(6-cyclopropyl-3,4-dihydroisoquinolin-2(1H)-yl)-4-((1-(hydroxymethyl)cyclobutyl)amino)-6,7-dihydrothieno[3,2-d]pyrimidine 5-oxide], with 1.13 nM.
The same measure, in the same setting: then `[O-][S@+]1CCc2nc(N3CCc4nc(N5CCCC5)cnc4C3)nc(NC3(CO)CCC3)c21` [Compound 218, (R)-4-((1-(hydroxymethyl)cyclobutyl)amino)-2-(2-(pyrrolidin-1-yl)-7,8-dihydropyrido[3,4-b]pyrazin-6(5H)-yl)-6,7-dihydrothieno[3,2-d]pyrimidine 5-oxide], with 1.88 nM; and `[O-][S@+]1CCc2nc(N3CCc4c(nn5cc(Cl)ccc45)C3)nc(NC3(CO)CCC3)c21` [Compound 9, (R)-2-(7-Chloro-3,4-dihydropyrazolo[1,5-a:3,4-c']dipyridin-2(1H)-yl)-4-((1-(hydroxymethyl)cyclobutyl)amino)-6,7-dihydrothieno[3,2-d]pyrimidine 5-oxide], with 0.224 nM.
Still for that read-out and setting: under `[O-][S@+]1CCc2nc(N3CCc4cc(N5CCCC5)c(F)cc4C3)nc(NC3(CO)CCC3)c21` [Compound 181, (R)-2-(7-fluoro-6-(pyrrolidin-1-yl)-3,4-dihydroisoquinolin-2(1H)-yl)-4-((1-(hydroxymethyl)cyclobutyl)amino)-6,7-dihydrothieno[3,2-d]pyrimidine 5-oxide] stands 0.876 nM; under `[O-][S@+]1CCc2nc(N3CCc4nc(N5CCC5)sc4C3)nc(NC3(CO)CCC3)c21` [Compound 64, (R)-2-(2-(azetidin-1-yl)-6,7-dihydrothiazolo[5,4-c]pyridin-5(4H)-yl)-4-((1-(hydroxymethyl)cyclobutyl)amino)-6,7dihydrothieno[3,2-d]pyrimidine 5-oxide], 3.46 nM; under `O=C1OCCN1c1ccc2c(c1)CCN(c1nc3c(c(NC4(CO)CCC4)n1)[S@+]([O-])CC3)C2` [Compound 80, (R)-3-(2-(4-((1-(hydroxymethyl)cyclobutyl)amino)-5-oxido-6,7-dihydrothieno[3,2-d]pyrimidin-2-yl)-1,2,3,4-tetrahydroisoquinolin-6-yl)oxazolidin-2-one], 0.56 nM.
As for `[O-][S@+]1CCc2nc(N3CCc4c(c(Cl)nc5cc(Cl)ccc45)C3)nc(NC3(CO)CCC3)c21` [Compound 73, (R)-2-(5,8-dichloro-1,4-dihydrobenzo[c][2,7]naphthyridin-3(2H)-yl)-4-((1-(hydroxymethyl)cyclobutyl)amino)-6,7-dihydrothieno[3,2-d]pyrimidine 5-oxide], at PDE4D2, the IC50 is 0.958 nM.
The same measure, in the same setting: then `Cn1nccc1-c1ccc2c(c1)CCN(c1nc3c(c(NC4(CO)CCC4)n1)[S@+]([O-])CC3)C2` [Compound 76, (R)-4-((1-(hydroxymethyl)cyclobutyl)amino)-2-(6-(1-methyl-1H-pyrazol-5-yl)-3,4-dihydroisoquinolin-2(1H)-yl)-6,7-dihydrothieno[3,2-d]pyrimidine 5-oxide], with 0.089 nM.
